# Tests used:
# TdT [1] = target: T1, TdT (Homo sapiens, UniProt P04053); assay: Screen of nucleotide analogue substrates for TdT-based DNA synthesis (NPU formulation with Apyrase); type: biochemical; conditions: for efficiency as substrate of TdT versus natural counterpart: analogues more positively charged than natural counterparts; for behavior with respect to TdT-based DNA synthesis (extension efficiency, rate, extension length distribution): natural nucleotides
# Description: In the general scheme of the presently disclosed methods, the distribution of extension length by TdT is important to ensure efficient and reliable encoding of information into DNA. […] The following nucleotide analogues with the NPU formulation which included Apyrase were explored.
# TdT [2] = target: T1, TdT; assay: Chemical control of TdT extension by Apyrase on immobilized initiator oligo (PCR, agarose gel); type: biochemical; conditions: 0.001 U/μL Apyrase, 1 U/μL TdT, 4 minutes at room temperature
# Procedure: According to an exemplary protocol of the present disclosure, an initiator oligonucleotide was first immobilized onto a surface, for example with the use of a 5 prime modified oligonucleotide onto aldehyde functionalized glass slides. After tethering the initiator to a solid support, the surface was treated to neutralize the chemical reactive groups such as aldehydes in this case, and to increase hydrophobicity.
# Dilutions of nucleotides in solvents such as water or ethanol of the following concentration and types were prepared:
# Each of these nucleotides were printed on an oligo spot with a liquid handling robot followed by printing of the enzymatic mix comprising TdT (Terminal deoxynucleotidyl transferase) and Apyrase. […]
# Each of the synthesized DNA strands were released off the solid-support surface, in this exemplary embodiment, enzymatically, by the use of USER (Uracil-Specific Excision Reagent) enzyme which cleaves the uracils that are near the 5 prime distal end of the initial initiator oligonucleotide. These strands were subsequently PCR amplified and the number of synthesized nucleotides were evaluated by two methods: electrophoresis on agarose or PAGE gels for cursory bulk analysis and sequenced with next-generation sequencing platforms such as Illumina, Pacific Bioscience, and/or Oxford Nanopore for quantitative single-molecule analysis. […]
# T1 sequence (P04053 whole entry, species assumed): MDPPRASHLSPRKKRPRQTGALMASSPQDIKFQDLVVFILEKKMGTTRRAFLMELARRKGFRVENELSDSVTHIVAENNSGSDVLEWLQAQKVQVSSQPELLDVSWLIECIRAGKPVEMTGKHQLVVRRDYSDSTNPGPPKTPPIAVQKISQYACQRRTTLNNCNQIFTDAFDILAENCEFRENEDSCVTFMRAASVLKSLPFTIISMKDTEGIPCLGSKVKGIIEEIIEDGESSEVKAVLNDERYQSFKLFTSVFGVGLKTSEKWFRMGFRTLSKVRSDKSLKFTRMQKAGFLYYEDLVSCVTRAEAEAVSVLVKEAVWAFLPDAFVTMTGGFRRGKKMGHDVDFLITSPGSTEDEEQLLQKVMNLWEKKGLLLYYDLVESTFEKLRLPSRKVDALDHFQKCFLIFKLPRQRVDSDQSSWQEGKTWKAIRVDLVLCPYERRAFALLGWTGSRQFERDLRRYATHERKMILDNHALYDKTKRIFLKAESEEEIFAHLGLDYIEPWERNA
Molecule,efficiency as substrate of TdT versus natural counterpart (TdT [1]),"behavior with respect to TdT-based DNA synthesis (extension efficiency, rate, extension length distribution) (TdT [1])",other results
NC/C=C/c1cn(C2CC(O)C(COP(=O)(O)OP(=O)(O)OP(=O)(O)O)O2)c(=O)[nH]c1=O (stereo not drawn) [5-Aminoallyl-dUTP],far more efficient substrates of TdT,,
NCC#Cc1cn(C2CC(O)C(COP(=O)(O)OP(=O)(O)OP(=O)(O)O)O2)c(=O)[nH]c1=O (stereo not drawn) [5-Propargylamino-dUTP],far more efficient substrates of TdT,,
Nc1ncnc2c1ncn2[C@H]1C[C@H](O)[C@@H](COP(=O)(O)OP(=O)(O)OP(=O)(O)O)O1 [dATP],,poorest behavior,
Nc1ccn([C@H]2C[C@H](O)[C@@H](COP(=O)(O)OP(=O)(O)OP(=O)(O)O)O2)c(=O)n1 [dCTP],,most optimal behavior,
Cc1cn([C@H]2C[C@H](O)[C@@H](COP(=O)(O)OP(=O)(O)OP(=O)(O)O)O2)c(=O)[nH]c1=O [dTTP],,poorest behavior,
Apyrase,,,effect on average amount of extension by TdT (TdT [2]): effectively limited the average amount of extension by TdT

# — patent publication US10870872B2, “Enzymatic nucleic acid synthesis” (President and Fellows of Harvard College, priority 2016, dated 2020)
